Reference: PubChem BioAssay (NCI)
Several values for one entry are separate records, joined by “and”; a condition that tells them apart may be missing. Equal values may be shown once.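 Five compound concentrations were applied to cells in 96-well plates for 48 hours; endpoints were derived by simple linear interpolation of the resulting dose-response curve. At the GI50, growth is halved. TGI: total growth inhibition.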 Where a SMILES comes first, the peptide text is derived from it. [ ]: non-standard residue; d: D form. The star is where a group is joined. Bn2Val = CC(C)[C@@H](C(=O)*)N(Cc1ccccc1)Cc1ccccc1; NMeV = CN[C@H](C(=O)O)C(C)C; X29 = COc1ccc(CN*)c(OC)c1; dNMeA = CN[C@H](C)C(=O)O; Boc = CC(C)(C)OC(=O)*; OBn = c1ccc(CO*)cc1

Tests used:
Assay in all cases: NCI tumour cell line growth inhibition, 48 h
[1] = test system: HOP-92 NSCLC
[2] = test system: 786-0 renal
[3] = test system: SN12C renal
[4] = test system: HS 578T breast
[5] = test system: MOLT-4 leukemia
[6] = test system: OVCAR-4 ovarian
[7] = test system: HT29 colon
[8] = test system: SK-OV-3 ovarian
[9] = test system: A498 renal
[10] = test system: UACC-257 melanoma

Structure (SMILES) | TGI [1] [µM] | TGI [2] [µM] | TGI [3] [µM] | TGI [4] [µM] | TGI [5] [µM] | TGI [6] [µM] | TGI [7] [µM] | TGI [8] [µM] | TGI [9] [µM] | TGI [10] [µM] | GI50 [1] | GI50 [5] | GI50 [3] [µM] | GI50 [4] [µM] | GI50 [6] [µM] | GI50 [7] [µM] | GI50 [8] [µM] | GI50 [9] [µM] | GI50 [10] [µM]
O=C1C=C2CCC[C@H]3OC(=O)C[C@@]23CC1 | > 100 | > 100 | > 100 | > 100 | > 100 | > 100 | > 100 | > 100 | > 100 | > 100 |  |  |  |  |  |  |  |  | 
COc1ccc(CNC(=O)[C@@H]2CCCN2C(=O)[C@@H](C)N(C)C(=O)[C@H](C(C)C)N(C)C(=O)[C@@H](NC(=O)[C@H](C(C)C)N(Cc2ccccc2)Cc2ccccc2)C(C)C)c(OC)c1 (Bn2Val-V[NMeV][dNMeA]P-X29) | 9.1 | 11.1 | 3.25 | > 100 |  | 14.4 | 3.26 | 63.2 | 8.69 | 11.9 |  |  |  |  |  |  |  |  | 
CCCC1C(=O)Nc2cccc3ncn(c23)C1=O (centres undefined) | > 100 | > 100 | > 100 | > 100 | > 100 | > 100 | > 100 | > 100 | > 100 | > 100 |  |  |  |  |  |  |  |  | 
CCOC(=O)c1c(C)nc2c(c1-c1cn(-c3ccccc3)nc1-c1ccccc1)C(=O)c1ccccc1-2 | > 100 | > 100 | > 100 | > 100 | > 100 | > 100 | > 100 | > 100 | > 100 | > 100 |  |  |  |  |  |  |  |  | 
Cc1ccc(-c2cc(O)c3nc4ccccc4n3c2)cc1 | > 100 | > 100 | > 100 | > 100 | > 100 | > 100 | > 100 | > 100 | > 100 | > 100 |  |  |  |  |  |  |  |  | 
CC(C)(O)C1CC[C@]2(C)[C@H]3CC[C@@H]4[C@@]5(C)CCCC(C)(C)[C@@H]5CC[C@@]4(C)[C@]3(C)CC[C@@H]12 (some centres undefined) | > 100 | > 100 | > 100 | > 100 | > 100 | > 100 | > 100 | > 100 | > 100 | > 100 |  |  |  |  |  |  |  |  | 
COc1ccccc1N=Nc1c(O)c(S(=O)(=O)O)cc2cc(S(=O)(=O)O)ccc12 | > 100 | > 100 | > 100 | > 100 | > 100 | > 100 | > 100 | > 100 | > 100 | > 100 |  |  |  |  |  |  |  |  | 
CC1(C)CC2(C)CC1CC2(O)c1ccccc1 (centres undefined) | > 100 | > 100 | > 100 | > 100 | > 100 | > 100 | > 100 | > 100 | > 100 | > 100 |  |  |  |  |  |  |  |  | 
COC(=O)c1c(C)cccc1C1CN=NC12Cc1ccc(C)c(C)c1C2=O (centres undefined) | > 100 | > 100 | > 100 | > 100 | 66.4 | > 100 | > 100 |  | > 100 | > 100 |  |  |  |  |  |  |  |  | 
Cn1c([C@H](C#N)C(=O)c2cc(O)ccc2[N+](=O)[O-])nc2ccccc21 | > 100 | > 100 | > 100 | > 100 | > 100 | > 100 | > 100 |  | > 100 | > 100 |  |  |  |  |  |  |  |  | 
OCC(CCc1ccccc1I)C1=CCC2(CC1)OCCO2 (centres undefined) | 28.6 | 42.5 |  | 45.4 | > 100 | 69.9 | 41.6 | > 100 | 55.9 | 45.1 |  |  |  |  |  |  |  |  | 
CC(C)CC(NC(=O)OC(C)(C)C)C(=O)NC(CC(=O)OCc1ccccc1)C(=O)OCc1ccccc1 (stereo not drawn) (Boc-Leu-Asp(OBn)-OBn; configuration not given here) | > 100 | 49.6 | 50.9 | > 100 | 76.9 |  | > 100 | > 100 | > 100 | > 100 |  |  |  |  |  |  |  |  | 
CC(C)=CCOc1cc(NC(=S)c2ccsc2C)ccc1Cl | 37.1 | > 100 | > 100 | > 100 | > 100 | > 100 | > 100 | > 100 | > 100 | > 100 |  |  |  |  |  |  |  |  | 
O=C1CC(C(OCc2ccccc2)C(OCc2ccccc2)C(COCc2ccccc2)OCc2ccccc2)CC(=O)N1 (centres undefined) | > 100 | > 100 | > 100 | > 100 | > 100 | > 100 | > 75 |  | > 100 | > 100 | 90.7 µM and 30.3 µM | > 100 µM and 37.7 µM |  |  |  |  |  |  | 
COC(=O)CCc1c(Cc2ccc[nH]2)[nH]c(C(=O)OCc2ccccc2)c1C | 51.4 | 31.4 | 35.6 | 88.5 | 52.7 | 34 | 38.9 | > 100 | 62.8 | 38.9 |  |  |  |  |  |  |  |  | 
Cc1ccc(-c2nnc(CCCCCCCCc3nnc(-c4ccc(C)cc4O)n3N)n2N)c(O)c1 | > 100 | > 100 | > 100 | > 100 | > 100 | > 100 |  | > 100 | > 100 | > 100 |  |  |  |  |  |  |  |  | 
CCCCCCCCCC(=O)N[C@@H](c1ccco1)[C@@H](O)C(=O)O[C@H]1C[C@@]2(O)[C@@H](OC(=O)c3ccccc3)[C@@H]3[C@]4(OC(C)=O)CO[C@@H]4C[C@H](O)[C@@]3(C)C(=O)[C@H](OC(C)=O)C(=C1C)C2(C)C | 21.2 | 7.95 | 11.4 | 0.0857 | 2.3 | > 24.7 | 7.1 | > 18.7 | 10.3 | 11.7 |  |  |  |  |  |  |  |  | 
COc1ccc(/C=C/C(=O)c2ccc(-n3cc(CN4CCN(c5cc6c(cc5F)c(=O)c(C(=O)O)cn6C5CC5)CC4)nn3)cc2)cc1OC | 38.3 |  | 10 | > 100 | > 100 | 15.5 | > 100 | > 100 | 14.4 | > 100 | 11.7 µM | 3.32 µM | 2.66 | 3.91 | 3.94 | 1.24 | 7.09 | 4.18 | 6.34
CC(=O)OC1C2CCC3C(C)(O)C4CC(O)C(C)(C)C4(O)C(O)CC13CC2(C)O (centres undefined) | > 100 | > 100 | > 100 | > 100 |  | > 100 | > 100 | > 100 | > 100 | > 100 |  |  |  |  |  |  |  |  | 
Cc1nc2n(c1/C=C1/C(=O)Nc3ccccc31)CCS2 | > 100 | > 100 | > 100 | > 100 | > 100 | > 100 | > 100 | > 100 | > 100 | > 100 |  |  |  |  |  |  |  |  | 
CC1(C)C(CCO)CC1n1ccc(=O)[nH]c1=O (centres undefined) | > 100 | > 100 | > 100 | > 100 |  | > 100 |  | > 100 | > 100 | > 100 |  |  |  |  |  |  |  |  | 
Cc1ccc(NC2=NCCO2)c2c1CCC2 | 70 | > 100 | > 100 | > 100 | > 100 | > 100 | > 100 | > 100 | > 100 |  |  |  |  |  |  |  |  |  | 
NC(Cc1c[nH]c2cc([N+](=O)[O-])ccc12)C(=O)O (centres undefined) | > 100 | > 100 | > 100 | > 100 | > 100 | > 100 | > 100 | > 100 | > 100 | > 100 |  |  |  |  |  |  |  |  | 
COC(=O)c1c(CC(Cc2ccc3c(c2)CCCC3)C(=O)OC)ccc2c1CCCC2 (centres undefined) | > 100 | > 100 | > 100 | > 100 | > 100 | 45.1 | > 100 | > 100 | > 100 | > 100 |  |  |  |  |  |  |  |  | 
